Assays:
[1] = target: Phosphatidylinositol 4,5-bisphosphate 3-kinase catalytic subunit beta isoform (Homo sapiens) (UniProt P42338); experiment: Inhibition of PIK3CB ATP binding site (VFGEDSVGVIFKNGDDLRQDMLTLQMLR) in human PBMC at 1 uM
[2] = target: T1, Serine/threonine-protein kinase 4 (Homo sapiens) (UniProt Q13043); experiment: Inhibition of MST1 conserved Lys1 ETGQIVAIKQVPVESDLQEIIK in human PBMC at 1 uM
T1 sequence (whole entry): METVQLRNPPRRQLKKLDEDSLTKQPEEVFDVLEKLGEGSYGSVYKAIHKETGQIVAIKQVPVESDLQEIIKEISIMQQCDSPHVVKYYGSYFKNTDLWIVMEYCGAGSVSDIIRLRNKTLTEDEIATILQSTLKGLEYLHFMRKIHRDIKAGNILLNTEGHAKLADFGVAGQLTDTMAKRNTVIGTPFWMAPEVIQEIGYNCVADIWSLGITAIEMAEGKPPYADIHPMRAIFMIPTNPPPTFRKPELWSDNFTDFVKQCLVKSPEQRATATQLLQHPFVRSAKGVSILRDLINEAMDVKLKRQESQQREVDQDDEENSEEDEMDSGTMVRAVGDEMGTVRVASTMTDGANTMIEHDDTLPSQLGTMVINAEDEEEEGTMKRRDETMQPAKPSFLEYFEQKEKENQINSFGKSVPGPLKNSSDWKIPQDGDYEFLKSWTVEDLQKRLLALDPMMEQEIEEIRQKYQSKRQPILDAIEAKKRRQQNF

[3] = target: Phosphatidylinositol 5-phosphate 4-kinase type-2 gamma (Homo sapiens) (UniProt Q8TBX8); experiment: Inhibition of PIP4K2C ATP binding site (TLVIKEVSSEDIADMHSNLSNYHQYIVK) in human PBMC at 0.1 uM
[4] = Ratio of drug level in mouse brain to plasma at 10 mg/kg, po; type: ADME, organism-based; details: read-out: BPR
[5] = target: Serine/threonine-protein kinase Nek6 (Homo sapiens) (UniProt Q9HC98); experiment: Inhibition of NEK6 conserved Lys2 (DIKPANVFITATGVVK) in human PBMC at 1 uM
[6] = target: Mitogen-activated protein kinase kinase kinase 15 (Homo sapiens) (UniProt Q6ZN16); experiment: Inhibition of MAP3K15 conserved Lys1 (IAIKEIPER) in human PBMC at 1 uM
[7] = target: T2, Serine/threonine-protein kinase 3 (Homo sapiens) (UniProt Q13188); experiment: Inhibition of MST2 conserved Lys2 (DIKAGNILLNTEGHAK) in human PBMC at 0.1 uM
T2 sequence (whole entry): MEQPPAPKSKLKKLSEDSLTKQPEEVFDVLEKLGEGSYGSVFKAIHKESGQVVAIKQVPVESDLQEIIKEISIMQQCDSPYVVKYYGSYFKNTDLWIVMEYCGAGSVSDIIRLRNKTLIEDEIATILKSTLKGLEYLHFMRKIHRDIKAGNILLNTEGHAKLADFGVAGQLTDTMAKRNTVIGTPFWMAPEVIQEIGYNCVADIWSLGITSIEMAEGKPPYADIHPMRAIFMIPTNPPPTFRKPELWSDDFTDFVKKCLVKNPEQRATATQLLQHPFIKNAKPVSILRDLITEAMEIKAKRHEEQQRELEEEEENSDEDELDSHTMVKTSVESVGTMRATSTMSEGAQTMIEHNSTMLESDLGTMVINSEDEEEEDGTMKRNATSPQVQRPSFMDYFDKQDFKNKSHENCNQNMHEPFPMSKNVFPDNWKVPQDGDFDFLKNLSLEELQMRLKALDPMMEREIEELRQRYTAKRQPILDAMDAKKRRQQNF

[8] = target: Cyclin-dependent kinase 5 (Homo sapiens) (UniProt Q00535); experiment: Inhibition of CDK5 labeling at conserved Lys1 (NRETHEIVALKR) in human PBMC at 1 uM
[9] = target: Serine/threonine-protein kinase B-raf (Homo sapiens) (UniProt P15056); experiment: Inhibition of BRAF labeling at conserved Lys2 (DLKSNNIFLHEDLTVK) in human PBMC at 0.1 uM
[10] = target: T3, Phosphatidylinositol 4,5-bisphosphate 3-kinase catalytic subunit delta isoform (Homo sapiens) (UniProt O00329); experiment: Inhibition of PIK3CD ATP binding site (TKVNWLAHNVSKDNRQ) in human PBMC at 1 uM
T3 sequence (whole entry): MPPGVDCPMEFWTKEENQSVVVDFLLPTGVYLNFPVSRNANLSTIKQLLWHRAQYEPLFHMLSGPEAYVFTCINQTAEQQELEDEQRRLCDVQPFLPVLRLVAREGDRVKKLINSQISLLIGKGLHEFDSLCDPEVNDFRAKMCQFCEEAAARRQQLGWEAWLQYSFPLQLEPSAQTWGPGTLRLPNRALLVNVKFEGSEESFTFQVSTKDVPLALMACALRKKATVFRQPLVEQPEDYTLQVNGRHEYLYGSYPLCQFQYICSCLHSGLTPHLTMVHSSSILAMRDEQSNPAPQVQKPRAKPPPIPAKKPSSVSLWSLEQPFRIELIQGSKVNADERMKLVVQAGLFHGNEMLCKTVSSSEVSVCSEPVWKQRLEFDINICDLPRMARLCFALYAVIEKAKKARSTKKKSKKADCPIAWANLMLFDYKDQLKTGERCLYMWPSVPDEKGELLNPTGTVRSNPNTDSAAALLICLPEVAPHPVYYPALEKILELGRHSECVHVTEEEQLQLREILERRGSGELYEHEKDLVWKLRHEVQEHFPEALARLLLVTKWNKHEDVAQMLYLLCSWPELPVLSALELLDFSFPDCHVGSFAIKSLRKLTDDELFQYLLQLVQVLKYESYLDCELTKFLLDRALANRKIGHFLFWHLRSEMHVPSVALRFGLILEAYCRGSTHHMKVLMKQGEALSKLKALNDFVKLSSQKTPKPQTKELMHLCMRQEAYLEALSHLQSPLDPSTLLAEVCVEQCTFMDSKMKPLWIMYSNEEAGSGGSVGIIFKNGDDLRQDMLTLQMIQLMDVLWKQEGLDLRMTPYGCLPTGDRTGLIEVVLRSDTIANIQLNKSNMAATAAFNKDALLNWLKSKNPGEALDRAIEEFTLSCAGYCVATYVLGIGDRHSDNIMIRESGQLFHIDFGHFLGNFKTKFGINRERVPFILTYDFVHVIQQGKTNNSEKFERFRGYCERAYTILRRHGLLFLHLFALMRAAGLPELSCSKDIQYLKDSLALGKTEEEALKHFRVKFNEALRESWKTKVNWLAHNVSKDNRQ

[11] = target: Mitogen-activated protein kinase 13 (Homo sapiens) (UniProt O15264); experiment: Inhibition of p38d conserved Lys2 (DLKPGNLAVNEDCELK) in human PBMC at 1 uM
[12] = target: Tyrosine-protein kinase Fer (Homo sapiens) (UniProt P16591); experiment: Inhibition of FER conserved Lys2 (TSVAVKTCKEDLPQELK) in human PBMC at 0.1 uM
Chain of Tyrosine-protein kinase Fer (Homo sapiens) (P16591 whole entry, looked up): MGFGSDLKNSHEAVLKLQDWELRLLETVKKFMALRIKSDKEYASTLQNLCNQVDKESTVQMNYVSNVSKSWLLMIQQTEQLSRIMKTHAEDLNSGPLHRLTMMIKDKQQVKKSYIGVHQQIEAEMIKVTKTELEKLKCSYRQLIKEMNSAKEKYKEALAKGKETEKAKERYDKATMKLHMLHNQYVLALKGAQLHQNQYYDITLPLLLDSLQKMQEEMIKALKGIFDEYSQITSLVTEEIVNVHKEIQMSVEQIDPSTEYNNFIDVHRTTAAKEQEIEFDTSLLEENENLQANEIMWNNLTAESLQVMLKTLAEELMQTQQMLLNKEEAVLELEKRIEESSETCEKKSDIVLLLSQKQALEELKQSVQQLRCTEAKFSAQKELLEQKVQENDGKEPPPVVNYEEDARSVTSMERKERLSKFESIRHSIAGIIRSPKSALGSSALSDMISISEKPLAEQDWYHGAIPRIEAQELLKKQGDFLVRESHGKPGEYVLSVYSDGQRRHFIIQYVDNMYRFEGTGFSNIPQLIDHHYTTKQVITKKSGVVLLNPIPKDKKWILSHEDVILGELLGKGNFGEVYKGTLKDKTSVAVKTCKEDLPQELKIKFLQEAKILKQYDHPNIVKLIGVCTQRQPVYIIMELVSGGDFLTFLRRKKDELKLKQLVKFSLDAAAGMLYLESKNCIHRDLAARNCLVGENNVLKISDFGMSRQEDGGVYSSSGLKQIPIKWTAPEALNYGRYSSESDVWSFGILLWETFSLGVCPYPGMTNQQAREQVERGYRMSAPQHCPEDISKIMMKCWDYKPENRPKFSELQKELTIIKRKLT

Chain of Phosphatidylinositol 4,5-bisphosphate 3-kinase catalytic subunit beta isoform (Homo sapiens) (P42338 whole entry, looked up, canonical isoform): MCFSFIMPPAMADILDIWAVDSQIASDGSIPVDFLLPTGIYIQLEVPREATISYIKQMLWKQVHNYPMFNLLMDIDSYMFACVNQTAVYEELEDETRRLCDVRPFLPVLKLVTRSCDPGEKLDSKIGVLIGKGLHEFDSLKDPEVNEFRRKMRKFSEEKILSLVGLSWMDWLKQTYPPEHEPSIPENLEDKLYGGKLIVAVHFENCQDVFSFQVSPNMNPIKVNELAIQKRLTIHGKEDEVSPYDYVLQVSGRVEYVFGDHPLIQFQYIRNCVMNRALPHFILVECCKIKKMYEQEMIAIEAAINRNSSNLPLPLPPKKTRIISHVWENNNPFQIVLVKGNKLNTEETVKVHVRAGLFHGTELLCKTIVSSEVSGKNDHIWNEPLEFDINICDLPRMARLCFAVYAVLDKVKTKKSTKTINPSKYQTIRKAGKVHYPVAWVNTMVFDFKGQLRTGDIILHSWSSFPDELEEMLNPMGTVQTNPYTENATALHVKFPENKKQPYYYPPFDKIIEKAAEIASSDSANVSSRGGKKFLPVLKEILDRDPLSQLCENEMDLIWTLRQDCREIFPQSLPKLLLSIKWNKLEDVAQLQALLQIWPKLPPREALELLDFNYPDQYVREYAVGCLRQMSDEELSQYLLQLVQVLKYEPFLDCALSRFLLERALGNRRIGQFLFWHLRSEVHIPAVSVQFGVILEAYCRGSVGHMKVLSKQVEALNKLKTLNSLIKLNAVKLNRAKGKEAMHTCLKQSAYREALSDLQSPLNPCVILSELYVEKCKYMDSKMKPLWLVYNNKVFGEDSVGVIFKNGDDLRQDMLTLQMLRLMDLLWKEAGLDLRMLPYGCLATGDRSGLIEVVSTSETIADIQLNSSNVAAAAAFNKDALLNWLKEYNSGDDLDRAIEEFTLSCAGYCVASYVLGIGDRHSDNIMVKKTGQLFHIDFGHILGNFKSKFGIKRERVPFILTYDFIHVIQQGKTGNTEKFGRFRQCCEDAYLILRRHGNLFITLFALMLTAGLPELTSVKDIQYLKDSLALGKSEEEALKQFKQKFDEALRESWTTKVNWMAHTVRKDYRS
Chain of Cyclin-dependent kinase 5 (Homo sapiens) (Q00535 whole entry, looked up): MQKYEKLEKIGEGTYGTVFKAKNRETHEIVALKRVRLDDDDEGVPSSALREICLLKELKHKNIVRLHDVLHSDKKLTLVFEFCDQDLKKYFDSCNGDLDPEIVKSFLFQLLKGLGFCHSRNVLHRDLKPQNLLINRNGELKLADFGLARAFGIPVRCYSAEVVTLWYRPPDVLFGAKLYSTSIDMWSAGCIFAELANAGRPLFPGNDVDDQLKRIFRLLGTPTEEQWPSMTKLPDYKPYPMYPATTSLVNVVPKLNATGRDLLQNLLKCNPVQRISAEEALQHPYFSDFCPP
Chain of Phosphatidylinositol 5-phosphate 4-kinase type-2 gamma (Homo sapiens) (Q8TBX8 whole entry): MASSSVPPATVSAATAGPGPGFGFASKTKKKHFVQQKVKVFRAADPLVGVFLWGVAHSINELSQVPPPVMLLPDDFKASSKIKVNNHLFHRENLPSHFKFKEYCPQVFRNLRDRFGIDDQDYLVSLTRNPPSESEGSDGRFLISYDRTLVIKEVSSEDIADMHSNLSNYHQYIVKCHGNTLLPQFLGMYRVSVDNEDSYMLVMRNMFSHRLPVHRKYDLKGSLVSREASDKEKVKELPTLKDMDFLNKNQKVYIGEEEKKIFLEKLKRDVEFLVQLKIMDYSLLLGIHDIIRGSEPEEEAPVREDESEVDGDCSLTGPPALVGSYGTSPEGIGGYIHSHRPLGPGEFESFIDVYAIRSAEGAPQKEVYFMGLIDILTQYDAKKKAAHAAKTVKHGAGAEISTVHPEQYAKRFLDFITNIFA
Chain of Serine/threonine-protein kinase Nek6 (Homo sapiens) (Q9HC98 whole entry): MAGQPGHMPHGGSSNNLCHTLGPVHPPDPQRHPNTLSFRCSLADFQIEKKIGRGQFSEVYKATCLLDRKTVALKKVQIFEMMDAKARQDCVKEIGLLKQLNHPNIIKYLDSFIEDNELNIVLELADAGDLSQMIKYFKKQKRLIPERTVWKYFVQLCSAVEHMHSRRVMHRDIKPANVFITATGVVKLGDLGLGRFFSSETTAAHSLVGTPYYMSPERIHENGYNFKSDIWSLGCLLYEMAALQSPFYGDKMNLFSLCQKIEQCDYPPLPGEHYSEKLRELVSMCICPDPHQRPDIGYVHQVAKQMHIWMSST
Chain of Mitogen-activated protein kinase 13 (Homo sapiens) (O15264 whole entry): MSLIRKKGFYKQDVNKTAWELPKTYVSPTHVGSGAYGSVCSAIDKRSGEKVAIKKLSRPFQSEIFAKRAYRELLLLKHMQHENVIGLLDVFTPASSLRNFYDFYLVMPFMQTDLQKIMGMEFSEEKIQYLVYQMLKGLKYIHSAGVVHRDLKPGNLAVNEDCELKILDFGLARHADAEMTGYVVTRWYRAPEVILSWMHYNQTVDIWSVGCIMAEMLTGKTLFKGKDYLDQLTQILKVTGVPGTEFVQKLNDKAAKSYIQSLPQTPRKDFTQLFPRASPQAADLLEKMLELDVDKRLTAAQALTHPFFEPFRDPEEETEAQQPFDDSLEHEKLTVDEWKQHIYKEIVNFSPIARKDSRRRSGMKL
Chain of Serine/threonine-protein kinase B-raf (Homo sapiens) (P15056 whole entry, canonical isoform): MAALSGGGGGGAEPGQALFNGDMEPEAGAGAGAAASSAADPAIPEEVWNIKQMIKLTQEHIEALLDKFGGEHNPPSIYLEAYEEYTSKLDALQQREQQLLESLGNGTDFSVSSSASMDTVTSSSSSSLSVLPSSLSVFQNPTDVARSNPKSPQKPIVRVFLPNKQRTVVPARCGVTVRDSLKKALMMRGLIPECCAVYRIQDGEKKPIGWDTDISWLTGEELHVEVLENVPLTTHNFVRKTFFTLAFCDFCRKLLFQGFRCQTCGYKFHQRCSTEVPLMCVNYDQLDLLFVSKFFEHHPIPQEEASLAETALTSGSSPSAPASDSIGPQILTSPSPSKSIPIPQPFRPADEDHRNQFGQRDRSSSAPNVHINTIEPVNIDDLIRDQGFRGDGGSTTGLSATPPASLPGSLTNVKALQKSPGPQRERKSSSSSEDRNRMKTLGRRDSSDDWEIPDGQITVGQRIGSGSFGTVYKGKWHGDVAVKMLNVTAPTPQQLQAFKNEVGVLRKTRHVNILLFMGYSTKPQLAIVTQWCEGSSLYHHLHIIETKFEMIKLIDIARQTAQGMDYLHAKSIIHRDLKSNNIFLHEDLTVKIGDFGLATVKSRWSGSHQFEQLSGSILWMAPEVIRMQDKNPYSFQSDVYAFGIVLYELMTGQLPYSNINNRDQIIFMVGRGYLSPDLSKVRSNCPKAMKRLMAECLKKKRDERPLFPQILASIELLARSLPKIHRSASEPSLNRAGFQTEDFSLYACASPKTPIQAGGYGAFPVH

CC(C)n1cc(-c2cc(-c3ccc(CN4CCOCC4)cc3)cnc2N)nn1
inhibition [1]: 21.2%
inhibition [2]: -9.5%
inhibition [3]: -8.1%
Kp [4]: 1.3
inhibition [5]: -9.6%
inhibition [6]: -3.3%
inhibition [7]: 1.3%
inhibition [8]: 1.9%
inhibition [9]: 12.5%
inhibition [10]: 4%
inhibition [11]: 14%
inhibition [12]: -1.2%
